Measured values published in patent EP0340171A2, “Cyclodextrin complexes of 5-aminohexahydropyrimidine compounds” (WARNER-LAMBERT COMPANY, priority 1988, dated 1989).
“Also recorded” adds a separate entry of the source.

Tests used:
[1] = cited from earlier work
[2] = solubility in deionized water; type: physicochemical
Experimental: When complexed with beta-cyclodextrin the solubility increases to about 10 mg hexetidine (contained in about 43 mg of complex) in about 10 ml of water -- without the addition of any alcohol or any surfactant. This is an increase from about 0 to about 0.1% w/v in solubility. The complex, 43 mg, was dissolved in 10 ml of deionized water at about 50°C using vortexing. The complex, assayed by UV to be a 1:1 complex of hexetidine: beta-cyclodextrin, contains 10 mg of hexetidine in the 43 mg of complex, and therefore, a 0.1% w/v solution of hexetidine was made. The solution of the 43 mg of complex in 10 ml of water was clear.

solubility (hexetidine in aqueous solution) ([2]; water, no ethanol and no surfactant): about 0 % w/v
Structure (SMILES): CCCCC(CC)CN1CN(CC(CC)CCCC)CC(C)(N)C1 (centres unmarked) [hexetidine, 5-amino-1,3 bis(2-ethylhexyl)-5-methyl-hexahydropyrimidine]
solution of hexetidine in known in the art compositions ([1]; about 9.5% v/v ethanol and about 0.7% v/v of surfactant (e.g., TWEEN 80)): ~0.1 % w/v | solubility in ethanol ([1]; ethanol): soluble in ethanol | solubility in water ([1]; water): practically insoluble in water | solubility in water (in words) ([2]; 10 mg hexetidine, alone or as 43 mg of complex, in 10 ml of water): virtually insoluble in water; also recorded: did not dissolve
